Consider one compound from patent publication US20100303790A1, “USE OF BILIVERDIN REDUCTASE (BVR) AND BVR PEPTIDE FRAGMENTS TO TREAT CORONARY DISORDERS” (UNIVERSITY OF ROCHESTER, priority 2009, published 2010).

For this experiment, the system named is rat heart. Put plainly: BVR and HO-2 expression in rat heart after continuous isoproterenol infusion. It counts as in vivo. To be noted: 400 μg isoproterenol/kg/h, four days. On the procedure: Western Blot Analysis: Cell lysates were prepared by homogenization in RIPA buffer (40 mM Tris-HCl, pH 7.5, 1 mM EDTA, 1 mM DTT, 0.1 mM Na3VO4, 10 μg/ml aprotinin, 5 μg/ml pepstatin, 20 μg/ml leupeptin, 1 mM bezamidine followed by centrifugation at 800×g for 10 minutes at 4° C. (Ding et al., “Functional Role of Phosphodiesterase 3 in Cardiomyocyte Apoptosis: Implication in Heart Failure,” Circulation 111:2469-2476 (2005), which is hereby incorporated by reference in its entirety). Supernatant proteins were resolved by SDS-PAGE and transferred to nitrocellulose. Western blots were examined using antibodies against β-actin (Cell Signaling), BVR (Huang et al., “Detection of 10 Variants of Biliverdin Reductase in Rat Liver by Two-Dimensional Gel Electrophoresis,” J Biol Chem 264:7844-7849 (1989), which is hereby incorporated by reference in its entirety), HO-1, HO-2 (Panahian et al., “Site of Injury-Directed Induction of Heme Oxygenase-1 and -2 in Experimental Spinal Cord Injury Differential Functions in Neuronal Defense Mechanisms?” J Neurochem 76:539-554 (2001), which is hereby incorporated by reference in its entirety), and cleaved caspase-3 (Cell Signaling, Beverly Mass.). The secondary antibody was horseradish peroxidase-conjugated goat anti-rabbit IgG (1:2,000, Bio-Rad).
Quantitative RT-PCR: Total RNA was isolated using Trizol reagent (Invitrogen). The first-strand cDNA synthesis and quantitative polymerase chain reaction (RT-PCR) were performed as previously described (Tudor et al., “Biliverdin Reductase is a Transporter of Haem into the Nucleus and is Essential for Regulation of HO-1 Gene Expression by Haematin,” Biochem J 413:405-416 (2008), which is hereby incorporated by reference in its entirety). The following primers were used for PCR analysis: […]
Implanting ISO Miniosmotic Pump: Miniosmotic pumps (Alzet model 2001, Durect Co., Cupertino, Calif.) were filled under sterile conditions with ISO dissolved in 0.001 N HCl, primed in sterile saline at 37° C. overnight, and aseptically implanted subcutaneously under halothane anesthesia. The ISO concentration was calculated to allow the pumps to deliver the drug at an infusion rate of 400 μg ISO base/kg/h, essentially as described by (Hayes et al., “Effects of Prolonged Isoproterenol Infusion on Cardiac and Vascular Responses to Adrenoceptor Agonists,”J Pharmacol Exp Ther 237:757-763 (1986), which is hereby incorporated by reference in its entirety).
It might be argued that the above data arose as an artifact of cell culture. To test whether those findings also apply in vivo, four rats were continuously infused with isoproterenol for four days, after which cardiac tissue was harvested for examination of BVR and HO-2 expression. […] Also, as expected from in vitro observations, there was no change in the level of HO-2 mRNA during infusion with isoproterenol (FIG. 3B), whereas the BVR mRNA was increased.

Each structure is given as a SMILES string.

Turning to `CC(C)NCC(O)c1ccc(O)c(O)c1` (centres unmarked) [isoproterenol], the “BVR mRNA in heart” value was “increased”, the “level of HO-1 mRNA in the tissue” value is “no apparent change” and the “level of HO-2 mRNA in heart” value is “no change”. Moreover, where the note is “vs sham”, the “BVR protein expression in heart” value is recorded as “up-regulated” and the “HO-2 protein expression in heart” value was “up-regulated”.
